The record followed here is patent publication US20050282743A1, “Molecular interactions in cells” (Arbor Vita Corporation, priority 2001, published 2005).

Holding throughout (assay type): binding
The target of assay [1] is T1, PDZ protein (GST-PDZ fusion) (Homo sapiens, UniProt P29074).
T1 construct: made in house; host or cells: E. coli (DH5alpha, BL21 or JM109)
T1 sequence (P29074 1-926): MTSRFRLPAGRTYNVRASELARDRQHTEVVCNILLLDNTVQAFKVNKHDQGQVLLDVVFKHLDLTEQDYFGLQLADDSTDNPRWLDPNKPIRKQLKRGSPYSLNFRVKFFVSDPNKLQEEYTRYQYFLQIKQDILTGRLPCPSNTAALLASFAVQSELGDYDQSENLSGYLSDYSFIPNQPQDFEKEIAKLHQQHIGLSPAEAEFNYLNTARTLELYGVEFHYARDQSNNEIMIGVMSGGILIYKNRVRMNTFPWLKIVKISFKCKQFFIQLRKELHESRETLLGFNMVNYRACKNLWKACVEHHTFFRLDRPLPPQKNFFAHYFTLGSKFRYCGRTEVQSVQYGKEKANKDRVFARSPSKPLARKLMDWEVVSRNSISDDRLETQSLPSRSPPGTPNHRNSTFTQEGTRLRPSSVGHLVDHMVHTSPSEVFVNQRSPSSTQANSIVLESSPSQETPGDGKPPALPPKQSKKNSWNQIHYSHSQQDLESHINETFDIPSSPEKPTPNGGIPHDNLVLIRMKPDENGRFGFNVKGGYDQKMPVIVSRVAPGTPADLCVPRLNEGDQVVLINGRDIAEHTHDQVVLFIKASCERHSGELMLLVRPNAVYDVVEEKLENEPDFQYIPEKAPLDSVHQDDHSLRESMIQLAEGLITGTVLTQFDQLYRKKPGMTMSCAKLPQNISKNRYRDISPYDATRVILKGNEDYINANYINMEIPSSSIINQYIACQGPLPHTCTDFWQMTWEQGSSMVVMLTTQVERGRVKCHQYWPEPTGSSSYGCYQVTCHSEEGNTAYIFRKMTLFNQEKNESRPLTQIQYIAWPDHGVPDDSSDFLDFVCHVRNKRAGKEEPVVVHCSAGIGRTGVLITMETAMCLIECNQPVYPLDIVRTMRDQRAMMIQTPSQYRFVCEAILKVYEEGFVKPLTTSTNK
The experiment in a line: G' assay (10 uM PL peptide), results of TABLE 7 and TABLE 12. The following applies: PDZ PTN-4, PDZ Domain 1. An outline of the steps: (§1)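 Biotinylated PL peptides at 10 uM (vs 20 uM in G^0 assay) bound to GST-PDZ fusions; PDZ protein at 5 ug/ml unless another concentration listed. Bound peptide read as A450 nm, classified 0–5 (0 = A450 0; 5 = A450 >4 repeated).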

In assay [2] the target is T2, PSD95 (PDZ Domain 1, 2, 3) (Homo sapiens, UniProt P78352).
T2 construct: When more than one PDZ domain was cloned, the DNA portion cloned represents the PDZ domains and the cDNA portion located between individual domains; made in house; host or cells: E. coli (DH5alpha, BL21 or JM109)
T2 sequence (P78352 58-398 limits assumed): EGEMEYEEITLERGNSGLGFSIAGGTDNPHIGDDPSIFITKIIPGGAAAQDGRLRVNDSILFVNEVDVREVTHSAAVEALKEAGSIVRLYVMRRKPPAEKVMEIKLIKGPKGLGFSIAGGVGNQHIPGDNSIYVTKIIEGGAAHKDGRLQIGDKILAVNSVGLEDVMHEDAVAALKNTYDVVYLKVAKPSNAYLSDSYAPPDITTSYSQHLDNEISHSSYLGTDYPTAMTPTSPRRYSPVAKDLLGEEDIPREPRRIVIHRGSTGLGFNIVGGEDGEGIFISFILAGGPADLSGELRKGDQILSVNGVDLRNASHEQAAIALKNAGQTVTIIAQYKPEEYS
The experiment in a line: G' assay, TABLE 12. The following applies: A450 nm class of biotinylated PL peptide bound; 0 in conc columns = peptide 10 uM, protein 5 ug/ml. In outline: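 PL peptide binding to PDZ domain protein, peptide at 10 uM; protein at 5 ug/ml unless another concentration is listed for Kd determination. Bound peptide read at A450 nm and binned into classes 0–5.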

Assay [3] deals with T3, PDZ protein (GST-PDZ fusion) (Homo sapiens, UniProt Q9NR12).
T3 construct: made in house; host or cells: E. coli (DH5alpha, BL21 or JM109)
T3 sequence (Q9NR12 whole entry, the tested form may be a part): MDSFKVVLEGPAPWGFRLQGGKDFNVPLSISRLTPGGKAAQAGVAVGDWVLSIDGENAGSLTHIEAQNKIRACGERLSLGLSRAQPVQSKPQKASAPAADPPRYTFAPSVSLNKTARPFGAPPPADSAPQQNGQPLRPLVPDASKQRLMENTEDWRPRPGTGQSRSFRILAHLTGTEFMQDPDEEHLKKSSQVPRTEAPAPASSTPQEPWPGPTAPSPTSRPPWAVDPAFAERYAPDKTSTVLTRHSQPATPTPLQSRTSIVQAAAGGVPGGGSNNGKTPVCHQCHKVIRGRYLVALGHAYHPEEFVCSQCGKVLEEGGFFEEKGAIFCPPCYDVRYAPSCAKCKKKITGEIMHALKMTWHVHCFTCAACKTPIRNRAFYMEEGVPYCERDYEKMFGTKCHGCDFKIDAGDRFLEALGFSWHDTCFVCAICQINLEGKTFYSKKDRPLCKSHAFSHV
The experiment in a line: G' assay (10 uM PL peptide), results of TABLE 7 and TABLE 12. The following applies: PDZ ENIGMA, PDZ Domain 1. In outline: as §1

Ends that are not written are not given here. Peptide text beside a SMILES is read from it. * marks the point of attachment. Biotin = O=C1N[C@H]2[C@H](CS[C@H]2CCCCC(=O)*)N1

Turning to TQGFPGPATWRRISSLESEV, the Classification in assay [1] is 2 (A450 nm 1-2).

For “ISGTPTSTMVHGMTSSSSVV (Biotin-ISGTPTSTMVHGMTSSSSVV) [Clasp-2]”, the Classification in assay [2] is recorded as 2 (A450 nm 1-2). In the case of `CC(C)C[C@H](NC(=O)[C@H](C)NC(=O)[C@@H](NC(=O)[C@H](CCC(=O)O)NC(=O)[C@H](CCCNC(=N)N)NC(=O)[C@H](CCCNC(=N)N)NC(=O)CNC(=O)[C@H](CCC(N)=O)NC(=O)[C@H](CC(C)C)NC(=O)[C@H](CCCNC(=N)N)NC(=O)CNC(=O)CNC(=O)[C@H](CCCNC(=N)N)NC(=O)[C@H](C)NC(=O)[C@H](CO)NC(=O)[C@H](CCCNC(=N)N)NC(=O)CNC(=O)CNC(=O)[C@H](C)NC(=O)[C@H](C)NC(=O)CCCC[C@@H]1SC[C@@H]2NC(=O)N[C@@H]21)[C@@H](C)O)C(=O)O` [HPV E6 33 (modified)] (Biotin-AAGGRSARGGRLQGRRETAL-OH; C-terminus assumed), the Classification in assay [1] was 1 (A450 nm 0-1).

Consider `CC[C@H](C)[C@H](NC(=O)[C@H](CCC(N)=O)NC(=O)CCCC[C@@H]1SC[C@@H]2NC(=O)N[C@@H]21)C(=O)N[C@@H](CO)C(=O)N1CCC[C@H]1C(=O)NCC(=O)NCC(=O)N[C@@H](CC(C)C)C(=O)N[C@@H](CCC(=O)O)C(=O)N1CCC[C@H]1C(=O)N1CCC[C@H]1C(=O)N[C@@H](CO)C(=O)N[C@@H](CCC(=O)O)C(=O)N[C@@H](CCCCN)C(=O)N[C@@H](Cc1c[nH]cn1)C(=O)N[C@@H](Cc1ccccc1)C(=O)N[C@@H](CCCNC(=N)N)C(=O)N[C@@H](CCC(=O)O)C(=O)N[C@H](C(=O)N[C@@H](CCC(=O)O)C(=O)N[C@H](C(=O)O)C(C)C)[C@@H](C)O` [Tax], for which the Classification is 2 (A450 nm 1-2) in assay [1] and 5 (A450 nm of 4 more than 2× repeated) in assay [2]. With `CC(C)C[C@H](NC(=O)[C@H](CC(=O)O)NC(=O)[C@H](CO)NC(=O)[C@H](CCC(=O)O)NC(=O)CNC(=O)[C@H](Cc1ccc(O)cc1)NC(=O)[C@H](CC(C)C)NC(=O)[C@H](C)NC(=O)[C@H](CO)NC(=O)[C@H](CO)NC(=O)[C@H](Cc1ccccc1)NC(=O)[C@H](C)NC(=O)[C@H](C)NC(=O)[C@H](Cc1ccc(O)cc1)NC(=O)[C@H](CC(=O)O)NC(=O)[C@H](CC(C)C)NC(=O)[C@H](C)NC(=O)CNC(=O)[C@@H]1CCCN1C(=O)[C@@H](NC(=O)CCCC[C@@H]1SC[C@@H]2NC(=O)N[C@@H]21)C(C)C)C(=O)O` [a-actinin 2] (Biotin-VPGALDYAAFSSALYGESDL-OH; C-terminus assumed), the Classification in assay [3] is recorded as 5 (A450 nm of 4 more than 2× repeated). Same read-out and setting: the figure for “GGGGGSGGGGGSGIESVKI [GLUR2 (glutamate receptor 2-modified)]” is 1 (A450 nm 0-1). Regarding `CC[C@H](C)[C@H](NC(=O)[C@H](CC(=O)O)NC(=O)[C@H](CCC(=O)O)NC(=O)[C@H](CCCNC(=N)N)NC(=O)[C@@H](NC(=O)CCCC[C@@H]1SC[C@@H]2NC(=O)N[C@@H]21)[C@@H](C)O)C(=O)N[C@@H](Cc1ccc(O)cc1)C(=O)N[C@H](C(=O)N[C@@H](CC(N)=O)C(=O)N[C@@H](Cc1ccc(O)cc1)C(=O)N1CCC[C@H]1C(=O)N[C@H](C(=O)N[C@@H](Cc1ccccc1)C(=O)N[C@@H](CO)C(=O)N[C@@H](CCCNC(=N)N)C(=O)N[C@@H](CCCNC(=N)N)C(=O)N1CCC[C@H]1C(=O)N[C@@H](CCCCN)C(=O)N[C@H](C(=O)N[C@@H](CCCNC(=N)N)C(=O)N[C@H](C(=O)O)C(C)C)[C@@H](C)O)[C@@H](C)O)C(C)C` [DNAM-1] (Biotin-TREDIYVNYPTFSRRPKTRV-OH; C-terminus assumed), the Classification in assay [2] was 2 (A450 nm 1-2). The same measure, in the same setting: the figure for “ARHRVTSYTSSSVNVSSNL (Biotin-ARHRVTSYTSSSVNVSSNL) [IL-8RB]” is 1 (A450 nm 0-1). Still for that read-out and setting: with `CC[C@H](C)[C@H](NC(=O)[C@H](CCC(=O)O)NC(=O)[C@H](CC(N)=O)NC(=O)[C@H](CCCNC(=N)N)NC(=O)[C@H](Cc1ccccc1)NC(=O)[C@H](CC(N)=O)NC(=O)[C@H](CO)NC(=O)[C@H](CC(N)=O)NC(=O)[C@H](CCC(=O)O)NC(=O)[C@H](CO)NC(=O)[C@H](CC(=O)O)NC(=O)[C@H](CO)NC(=O)[C@@H](NC(=O)[C@@H](NC(=O)[C@H](CC(=O)O)NC(=O)[C@H](CCCCN)NC(=O)CCCC[C@@H]1SC[C@@H]2NC(=O)N[C@@H]21)[C@@H](C)CC)[C@@H](C)O)C(=O)N[C@@H](CCC(N)=O)C(=O)N[C@@H](CO)C(=O)N[C@@H](CC(C)C)C(=O)N[C@H](C(=O)O)C(C)C` [CD95] (Biotin-KDITSDSENSNFRNEIQSLV-OH; C-terminus assumed) the figure was 1 (A450 nm 0-1). For the compound `CSCC[C@H](NC(=O)[C@H](C)NC(=O)[C@H](CCCNC(=N)N)NC(=O)CNC(=O)[C@@H](NC(=O)[C@H](Cc1c[nH]c2ccccc12)NC(=O)[C@H](CCCNC(=N)N)NC(=O)CNC(=O)CCCC[C@@H]1SC[C@@H]2NC(=O)N[C@@H]21)[C@@H](C)O)C(=O)N[C@@H](CO)C(=O)N[C@@H](C)C(=O)N[C@@H](Cc1c[nH]c2ccccc12)C(=O)N[C@@H](CCCCN)C(=O)N1CCC[C@H]1C(=O)N[C@H](C(=O)N[C@@H](CCCNC(=N)N)C(=O)N[C@@H](CCCNC(=N)N)C(=O)N[C@@H](CCC(=O)O)C(=O)N[C@H](C(=O)N[C@@H](CCC(=O)O)C(=O)N[C@H](C(=O)O)C(C)C)[C@@H](C)O)[C@@H](C)O` [HPV E6 #35 (modified)] (Biotin-GRWTGRAMSAWKPTRRETEV-OH; C-terminus assumed), the Classification in assay [1] is reported as 4 (A450 nm 3-4).

Take “VHDAESSDEDGYDWGPATDL (Biotin-VHDAESSDEDGYDWGPATDL) [zona occludens 3 (ZO-3)]”: the Classification in assay [3] is 1 (A450 nm 0-1). With “QATSRNGHSARQHVVADTEL (Biotin-QATSRNGHSARQHVVADTEL) [CD34]”, the Classification in assay [1] is reported as 1 (A450 nm 0-1).
